Molecular target: T1, PIK3CG (p110 gamma) (Homo sapiens, UniProt P48736)
T1 construct: purchased Thermo Fisher Scientific (Life Technologies) SelectScreen
Assay: SelectScreen Adapta
Format: biochemical
Outline: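 SelectScreen broad panel; activity (Z'LYTE, Adapta) plus binding formats. ATP: Km app for CSF1R Z'LYTE; 10 for CAMK1 Adapta. Readout = % per kinase.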

T1 sequence (P48736 whole entry): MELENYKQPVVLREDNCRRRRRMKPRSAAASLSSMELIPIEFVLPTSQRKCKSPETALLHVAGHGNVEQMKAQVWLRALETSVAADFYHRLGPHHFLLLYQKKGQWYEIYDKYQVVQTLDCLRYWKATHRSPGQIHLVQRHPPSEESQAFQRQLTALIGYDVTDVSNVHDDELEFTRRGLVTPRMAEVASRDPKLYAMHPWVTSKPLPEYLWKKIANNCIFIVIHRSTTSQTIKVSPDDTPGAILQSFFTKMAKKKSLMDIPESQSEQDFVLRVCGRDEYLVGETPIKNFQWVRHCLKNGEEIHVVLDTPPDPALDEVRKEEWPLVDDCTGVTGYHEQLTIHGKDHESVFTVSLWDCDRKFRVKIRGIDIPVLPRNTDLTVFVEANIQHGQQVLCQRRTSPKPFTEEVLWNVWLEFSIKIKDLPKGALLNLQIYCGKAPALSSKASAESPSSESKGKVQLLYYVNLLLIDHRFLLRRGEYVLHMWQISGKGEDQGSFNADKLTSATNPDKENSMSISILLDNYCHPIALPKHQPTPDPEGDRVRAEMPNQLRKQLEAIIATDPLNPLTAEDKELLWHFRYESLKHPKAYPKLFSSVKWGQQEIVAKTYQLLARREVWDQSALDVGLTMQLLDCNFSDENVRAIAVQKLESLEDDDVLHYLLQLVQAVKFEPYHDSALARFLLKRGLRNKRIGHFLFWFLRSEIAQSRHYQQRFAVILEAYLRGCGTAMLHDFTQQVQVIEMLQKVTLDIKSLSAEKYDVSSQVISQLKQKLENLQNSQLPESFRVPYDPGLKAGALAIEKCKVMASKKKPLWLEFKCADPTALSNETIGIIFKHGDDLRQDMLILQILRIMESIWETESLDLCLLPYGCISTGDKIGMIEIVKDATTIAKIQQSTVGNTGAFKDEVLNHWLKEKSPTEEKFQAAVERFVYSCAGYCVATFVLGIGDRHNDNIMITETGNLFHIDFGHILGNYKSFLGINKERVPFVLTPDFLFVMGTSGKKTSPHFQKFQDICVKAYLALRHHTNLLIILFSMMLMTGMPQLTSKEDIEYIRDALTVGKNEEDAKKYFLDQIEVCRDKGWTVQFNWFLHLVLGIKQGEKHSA

CN(C(=O)CN1CCOCC1)c1ccc2sc3c(-c4cccc5c(=O)cc(N6CC7CCC(C6)O7)oc45)cccc3c2c1 [NU5455] was tested, and the inhibition at 1 µM was 2.9%.
